In the test the test system is T1, NAGaseA.
T1 construct: whole ORF, 844 residues (2535 bp), pET-28a(+) NdeI/XhoI, His6-tag kept, E. coli BL21(DE3), Ni-NTA purified, ~92 kDa (92,379 Da with His6-tag); cloning primers encode N-terminal MNKPAG and C-terminal SRVVAV
Description: pNP release at […] nm, Lineweaver-Burk. Type of test: biochemical, Chitinibacter sp. GC72. The note with it: 50 mM PBS pH 6.5, 40°C, 10 min, 50-2,500 μM substrate.

The structures appear in SMILES notation.

As usually defined, the Km is the concentration of substrate that gives half-maximal velocity. For `CC(=O)N[C@H]1[C@H](Oc2ccc([N+](=O)[O-])cc2)O[C@H](CO)[C@@H](O)[C@@H]1O` [pNP-GlcNAc], the Km amounted to 40 µM.

The values are drawn from publication PMC9129912, “Characterization of a New Multifunctional GH20 β-N-Acetylglucosaminidase From Chitinibacter sp. GC72 and Its Application in Converting Chitin Into N-Acetyl Glucosamine” (Frontiers in Microbiology, 2022).
